From the supplement of paper PMC10307832

Key:
Test in all cases: relative viability (nuclei count vs DMSO), 5 days (fraction); higher = more cells survive
Crenolanib + Pemetrexed = compound: CC1(COc2ccc3c(c2)ncn3-c2ccc3cccc(N4CCC(N)CC4)c3n2)COC1 [Crenolanib] + Nc1nc2[nH]cc(CCc3ccc(C(=O)N[C@@H](CCC(=O)O)C(=O)O)cc3)c2c(=O)[nH]1 [Pemetrexed] (partner 0.2 µM)
How it was run: (§1)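 Lung cancer cell lines in 1536-well plates got either a single drug or a fixed anchor-drug dose together with five library-drug doses (not always all listed) in √10 steps, by pin tool, on the day after seeding. Nuclei were counted after 5 days, and relative viability is the treated-to-vehicle ratio of nuclei counts. Values are medians of duplicate plates.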

Tivantinib + Vorinostat = compound: O=C1NC(=O)[C@@H](c2cn3c4c(cccc24)CCC3)[C@@H]1c1c[nH]c2ccccc12 [Tivantinib] + O=C(CCCCCCC(=O)Nc1ccccc1)NO [Vorinostat] (partner 1 µM)
How it was run: as §1

Tivantinib + Pictilisib = compound: O=C1NC(=O)[C@@H](c2cn3c4c(cccc24)CCC3)[C@@H]1c1c[nH]c2ccccc12 [Tivantinib] + CS(=O)(=O)N1CCN(Cc2cc3nc(-c4cccc5[nH]ncc45)nc(N4CCOCC4)c3s2)CC1 [Pictilisib] (partner 1 µM)
How it was run: as §1

Crenolanib + Olaparib = compound: CC1(COc2ccc3c(c2)ncn3-c2ccc3cccc(N4CCC(N)CC4)c3n2)COC1 [Crenolanib] + O=C(c1cc(Cc2n[nH]c(=O)c3ccccc23)ccc1F)N1CCN(C(=O)C2CC2)CC1 [Olaparib] (partner 8 µM)
How it was run: as §1

NCI-H2347
relative viability (Crenolanib + Pemetrexed; first compound 0.01 µM): 0.4
relative viability (Crenolanib + Pemetrexed; first compound 0.03162 µM): 0.425
relative viability (Crenolanib + Pemetrexed; first compound 0.1 µM): 0.397
relative viability (Crenolanib + Pemetrexed; first compound 0.3162 µM): 0.447
relative viability (Crenolanib + Pemetrexed; first compound 1 µM): 0.436
relative viability (Tivantinib + Vorinostat; first compound 0.01 µM): 0.622
relative viability (Tivantinib + Vorinostat; first compound 0.03162 µM): 0.436
relative viability (Tivantinib + Vorinostat; first compound 0.1 µM): 0.518
relative viability (Tivantinib + Vorinostat; first compound 0.3162 µM): 0.498
relative viability (Tivantinib + Pictilisib; first compound 0.01 µM): 0.986
relative viability (Tivantinib + Pictilisib; first compound 0.03162 µM): 0.724
relative viability (Tivantinib + Pictilisib; first compound 0.1 µM): 0.514
relative viability (Tivantinib + Pictilisib; first compound 0.3162 µM): 0.525
relative viability (Crenolanib + Olaparib; first compound 0.01 µM): 0.555
relative viability (Crenolanib + Olaparib; first compound 0.03162 µM): 0.457
relative viability (Crenolanib + Olaparib; first compound 0.1 µM): 0.536
relative viability (Crenolanib + Olaparib; first compound 0.3162 µM): 0.59
relative viability (Crenolanib + Olaparib; first compound 1 µM): 0.636

NCI-H2405
relative viability (Crenolanib + Pemetrexed; first compound 0.01 µM): 1.11
relative viability (Crenolanib + Pemetrexed; first compound 0.1 µM): 0.869
relative viability (Crenolanib + Pemetrexed; first compound 0.3162 µM): 1.11
relative viability (Crenolanib + Pemetrexed; first compound 1 µM): 1.06
relative viability (Tivantinib + Vorinostat; first compound 0.01 µM): 1.17
relative viability (Tivantinib + Vorinostat; first compound 0.03162 µM): 1.04
relative viability (Tivantinib + Vorinostat; first compound 0.1 µM): 1
relative viability (Tivantinib + Vorinostat; first compound 0.3162 µM): 1.26
relative viability (Tivantinib + Pictilisib; first compound 0.01 µM): 0.509
relative viability (Tivantinib + Pictilisib; first compound 0.03162 µM): 0.43
relative viability (Tivantinib + Pictilisib; first compound 0.1 µM): 0.381
relative viability (Tivantinib + Pictilisib; first compound 0.3162 µM): 0.4
relative viability (Crenolanib + Olaparib; first compound 0.01 µM): 0.919
relative viability (Crenolanib + Olaparib; first compound 0.1 µM): 0.742
relative viability (Crenolanib + Olaparib; first compound 0.3162 µM): 0.919
relative viability (Crenolanib + Olaparib; first compound 1 µM): 0.86

NCI-H3122
relative viability (Crenolanib + Pemetrexed; first compound 0.01 µM): 0.205
relative viability (Crenolanib + Pemetrexed; first compound 0.03162 µM): 0.212
relative viability (Crenolanib + Pemetrexed; first compound 0.1 µM): 0.203
relative viability (Crenolanib + Pemetrexed; first compound 0.3162 µM): 0.203
relative viability (Crenolanib + Pemetrexed; first compound 1 µM): 0.18
relative viability (Tivantinib + Vorinostat; first compound 0.01 µM): 1.09
relative viability (Tivantinib + Vorinostat; first compound 0.03162 µM): 0.943
relative viability (Tivantinib + Vorinostat; first compound 0.1 µM): 0.947
relative viability (Tivantinib + Vorinostat; first compound 0.3162 µM): 1.11
relative viability (Tivantinib + Pictilisib; first compound 0.01 µM): 0.585
relative viability (Tivantinib + Pictilisib; first compound 0.03162 µM): 0.599
relative viability (Tivantinib + Pictilisib; first compound 0.1 µM): 0.545
relative viability (Tivantinib + Pictilisib; first compound 0.3162 µM): 0.441
relative viability (Crenolanib + Olaparib; first compound 0.01 µM): 0.678
relative viability (Crenolanib + Olaparib; first compound 0.03162 µM): 0.622
relative viability (Crenolanib + Olaparib; first compound 0.1 µM): 0.641
relative viability (Crenolanib + Olaparib; first compound 0.3162 µM): 0.727
relative viability (Crenolanib + Olaparib; first compound 1 µM): 0.61

PC-3 [JPC-3]
relative viability (Crenolanib + Pemetrexed; first compound 0.01 µM): 1.11
relative viability (Crenolanib + Pemetrexed; first compound 0.1 µM): 1.01
relative viability (Crenolanib + Pemetrexed; first compound 0.3162 µM): 1.21
relative viability (Crenolanib + Pemetrexed; first compound 1 µM): 0.889
relative viability (Tivantinib + Vorinostat; first compound 0.01 µM): 0.791
relative viability (Tivantinib + Vorinostat; first compound 0.03162 µM): 0.979
relative viability (Tivantinib + Vorinostat; first compound 0.1 µM): 0.891
relative viability (Tivantinib + Vorinostat; first compound 0.3162 µM): 0.807
relative viability (Tivantinib + Pictilisib; first compound 0.01 µM): 0.687
relative viability (Tivantinib + Pictilisib; first compound 0.03162 µM): 0.705
relative viability (Tivantinib + Pictilisib; first compound 0.1 µM): 0.765
relative viability (Tivantinib + Pictilisib; first compound 0.3162 µM): 0.637
relative viability (Crenolanib + Olaparib; first compound 0.01 µM): 1.26
relative viability (Crenolanib + Olaparib; first compound 0.1 µM): 1.01
relative viability (Crenolanib + Olaparib; first compound 0.3162 µM): 1.06
relative viability (Crenolanib + Olaparib; first compound 1 µM): 1.06

PC-14
relative viability (Crenolanib + Pemetrexed; first compound 0.01 µM): 0.137
relative viability (Crenolanib + Pemetrexed; first compound 0.03162 µM): 0.127
relative viability (Crenolanib + Pemetrexed; first compound 0.1 µM): 0.16
relative viability (Crenolanib + Pemetrexed; first compound 0.3162 µM): 0.133
relative viability (Crenolanib + Pemetrexed; first compound 1 µM): 0.143
relative viability (Tivantinib + Vorinostat; first compound 0.01 µM): 0.832
relative viability (Tivantinib + Vorinostat; first compound 0.03162 µM): 0.821
relative viability (Tivantinib + Vorinostat; first compound 0.1 µM): 0.755
relative viability (Tivantinib + Vorinostat; first compound 0.3162 µM): 0.356
relative viability (Tivantinib + Pictilisib; first compound 0.01 µM): 0.584
relative viability (Tivantinib + Pictilisib; first compound 0.03162 µM): 0.718
relative viability (Tivantinib + Pictilisib; first compound 0.1 µM): 0.723
relative viability (Tivantinib + Pictilisib; first compound 0.3162 µM): 0.292
relative viability (Crenolanib + Olaparib; first compound 0.01 µM): 0.255
relative viability (Crenolanib + Olaparib; first compound 0.03162 µM): 0.257
relative viability (Crenolanib + Olaparib; first compound 0.1 µM): 0.299
relative viability (Crenolanib + Olaparib; first compound 0.3162 µM): 0.249
relative viability (Crenolanib + Olaparib; first compound 1 µM): 0.257

RERF-LC-KJ
relative viability (Crenolanib + Pemetrexed; first compound 0.01 µM): 0.474
relative viability (Crenolanib + Pemetrexed; first compound 0.03162 µM): 0.516
relative viability (Crenolanib + Pemetrexed; first compound 0.1 µM): 0.457
relative viability (Crenolanib + Pemetrexed; first compound 0.3162 µM): 0.479
relative viability (Crenolanib + Pemetrexed; first compound 1 µM): 0.447
relative viability (Tivantinib + Vorinostat; first compound 0.01 µM): 0.717
relative viability (Tivantinib + Vorinostat; first compound 0.03162 µM): 0.628
relative viability (Tivantinib + Vorinostat; first compound 0.1 µM): 0.717
relative viability (Tivantinib + Vorinostat; first compound 0.3162 µM): 0.502
relative viability (Tivantinib + Pictilisib; first compound 0.01 µM): 0.543
relative viability (Tivantinib + Pictilisib; first compound 0.03162 µM): 0.618
relative viability (Tivantinib + Pictilisib; first compound 0.1 µM): 0.51
relative viability (Tivantinib + Pictilisib; first compound 0.3162 µM): 0.461
relative viability (Crenolanib + Olaparib; first compound 0.01 µM): 0.864
relative viability (Crenolanib + Olaparib; first compound 0.03162 µM): 0.942
relative viability (Crenolanib + Olaparib; first compound 0.1 µM): 0.871
relative viability (Crenolanib + Olaparib; first compound 0.3162 µM): 1.03
relative viability (Crenolanib + Olaparib; first compound 1 µM): 0.93

SK-LU-1
relative viability (Crenolanib + Pemetrexed; first compound 0.01 µM): 0.943
relative viability (Crenolanib + Pemetrexed; first compound 0.03162 µM): 1.03
relative viability (Crenolanib + Pemetrexed; first compound 0.1 µM): 0.892
relative viability (Crenolanib + Pemetrexed; first compound 0.3162 µM): 1.11
relative viability (Crenolanib + Pemetrexed; first compound 1 µM): 0.966
relative viability (Tivantinib + Vorinostat; first compound 0.01 µM): 0.742
relative viability (Tivantinib + Vorinostat; first compound 0.03162 µM): 0.764
relative viability (Tivantinib + Vorinostat; first compound 0.1 µM): 0.65
relative viability (Tivantinib + Vorinostat; first compound 0.3162 µM): 0.836
relative viability (Tivantinib + Pictilisib; first compound 0.01 µM): 0.669
relative viability (Tivantinib + Pictilisib; first compound 0.03162 µM): 0.524
relative viability (Tivantinib + Pictilisib; first compound 0.1 µM): 0.614
relative viability (Tivantinib + Pictilisib; first compound 0.3162 µM): 0.548
relative viability (Crenolanib + Olaparib; first compound 0.01 µM): 0.547
relative viability (Crenolanib + Olaparib; first compound 0.03162 µM): 0.491
relative viability (Crenolanib + Olaparib; first compound 0.1 µM): 0.331
relative viability (Crenolanib + Olaparib; first compound 0.3162 µM): 0.7
relative viability (Crenolanib + Olaparib; first compound 1 µM): 0.534

SK-MES-1
relative viability (Crenolanib + Pemetrexed; first compound 0.01 µM): 1.06
relative viability (Crenolanib + Pemetrexed; first compound 0.03162 µM): 0.964
relative viability (Crenolanib + Pemetrexed; first compound 0.1 µM): 0.886
relative viability (Crenolanib + Pemetrexed; first compound 0.3162 µM): 0.967
relative viability (Crenolanib + Pemetrexed; first compound 1 µM): 0.929
relative viability (Tivantinib + Vorinostat; first compound 0.01 µM): 1.16
relative viability (Tivantinib + Vorinostat; first compound 0.03162 µM): 0.945
relative viability (Tivantinib + Vorinostat; first compound 0.1 µM): 1.06
relative viability (Tivantinib + Vorinostat; first compound 0.3162 µM): 0.935
relative viability (Tivantinib + Pictilisib; first compound 0.01 µM): 0.413
relative viability (Tivantinib + Pictilisib; first compound 0.03162 µM): 0.368
relative viability (Tivantinib + Pictilisib; first compound 0.1 µM): 0.4
relative viability (Tivantinib + Pictilisib; first compound 0.3162 µM): 0.213
relative viability (Crenolanib + Olaparib; first compound 0.01 µM): 0.759
relative viability (Crenolanib + Olaparib; first compound 0.03162 µM): 0.705
relative viability (Crenolanib + Olaparib; first compound 0.1 µM): 0.682
relative viability (Crenolanib + Olaparib; first compound 0.3162 µM): 0.791
relative viability (Crenolanib + Olaparib; first compound 1 µM): 0.674

SW 1573
relative viability (Crenolanib + Pemetrexed; first compound 0.01 µM): 0.784
relative viability (Crenolanib + Pemetrexed; first compound 0.03162 µM): 0.801
relative viability (Crenolanib + Pemetrexed; first compound 0.1 µM): 0.719
relative viability (Crenolanib + Pemetrexed; first compound 0.3162 µM): 0.942
relative viability (Crenolanib + Pemetrexed; first compound 1 µM): 0.832
relative viability (Tivantinib + Vorinostat; first compound 0.01 µM): 1.04
relative viability (Tivantinib + Vorinostat; first compound 0.03162 µM): 0.53
relative viability (Tivantinib + Vorinostat; first compound 0.1 µM): 0.75
relative viability (Tivantinib + Vorinostat; first compound 0.3162 µM): 0.67
relative viability (Tivantinib + Pictilisib; first compound 0.01 µM): 0.491
relative viability (Tivantinib + Pictilisib; first compound 0.03162 µM): 0.52
relative viability (Tivantinib + Pictilisib; first compound 0.1 µM): 0.406
relative viability (Tivantinib + Pictilisib; first compound 0.3162 µM): 0.472
relative viability (Crenolanib + Olaparib; first compound 0.01 µM): 0.589
relative viability (Crenolanib + Olaparib; first compound 0.03162 µM): 0.416
relative viability (Crenolanib + Olaparib; first compound 0.1 µM): 0.44
relative viability (Crenolanib + Olaparib; first compound 0.3162 µM): 0.651
relative viability (Crenolanib + Olaparib; first compound 1 µM): 0.484
